pEC50: −log10 of the molar value.
Target: T1, Sodium- and chloride-dependent glycine transporter 2 (Homo sapiens, UniProt Q9Y345)
T1 sequence (Q9Y345 whole entry): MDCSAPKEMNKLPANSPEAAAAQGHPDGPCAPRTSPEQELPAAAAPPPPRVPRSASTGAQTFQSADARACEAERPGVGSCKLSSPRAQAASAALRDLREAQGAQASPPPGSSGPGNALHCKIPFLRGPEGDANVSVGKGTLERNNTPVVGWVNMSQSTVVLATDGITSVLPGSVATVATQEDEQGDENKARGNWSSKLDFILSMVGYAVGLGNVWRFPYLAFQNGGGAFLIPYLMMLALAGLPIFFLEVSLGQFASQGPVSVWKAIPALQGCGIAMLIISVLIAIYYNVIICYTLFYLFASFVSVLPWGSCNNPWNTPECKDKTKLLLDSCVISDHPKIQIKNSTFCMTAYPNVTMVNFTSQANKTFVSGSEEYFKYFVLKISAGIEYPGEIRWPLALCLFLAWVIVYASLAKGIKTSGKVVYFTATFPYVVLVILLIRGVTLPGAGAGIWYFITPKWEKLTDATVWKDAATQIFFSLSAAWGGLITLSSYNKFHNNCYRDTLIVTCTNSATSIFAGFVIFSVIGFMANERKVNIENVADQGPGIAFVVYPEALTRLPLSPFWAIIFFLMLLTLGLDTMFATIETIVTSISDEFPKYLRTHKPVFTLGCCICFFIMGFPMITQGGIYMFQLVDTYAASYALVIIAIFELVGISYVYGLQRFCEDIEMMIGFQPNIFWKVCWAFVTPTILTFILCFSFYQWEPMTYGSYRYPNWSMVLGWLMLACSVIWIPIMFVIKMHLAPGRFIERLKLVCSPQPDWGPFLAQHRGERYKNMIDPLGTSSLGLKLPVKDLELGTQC
Description: Substrate uptake by the Glycine Transporter-2 (GlyT2, SLC6A5) as assessed by the fluorescent FLIPR membrane potential dye in HEK-293 JumpIN-SLC6A5 cells (PubChem AID: 1794825)

pEC50: 3.89
Structure (SMILES): NCC(=O)O [GLYCINE]

Reference: ChEMBL document CHEMBL5209581, “Membrane potential based assay for SLC6A5 using HEK-293 SLC6A5 OE cells” (2022)
